The values that follow come from patent US12073966B2 (priority 2012, dated 2024).

The format of data set [1] is physicochemical. As to the method: A droplet containing pyranine (10 mM) and DPhPC (1 mg mL^−1) in 1 M KCl, 10 mM Tris·HCl, pH 7.0, was used to form a bilayer with another droplet containing DPhPC (1 mg mL^−1) but no pyranine in the same buffer. The droplets were incubated in a mixture of hexadecane/silicone oil AR20 (1:1 v/v) containing DPhPC (1 mg mL^−1).
An Ag/AgCl electrode, the cis electrode, was inserted into one droplet, and attached to the grounded end of a patch-clamp headstage (Axon Instruments, USA). A second Ag/AgCl electrode (trans) inserted in another droplet was connected to the active end. A positive potential causes the flow of anions from the cis to the trans electrode and of cations from trans to cis. The current was amplified by using a patchclamp amplifier (Axopatch 200B, Axon Instruments, USA), filtered with a low-pass Bessel filter (80 dB/decade) with a corner frequency of 1 kHz, and digitized with a Digidata 1322 A/D converter (Axon Instruments) at a sampling frequency of 20 kHz. Post-acquisition, the data were low-pass filtered at 100 Hz to 400 Hz. The droplet assembly, electrodes, and the headstage were enclosed in a metal box to minimize electrical noise.

A further data set addresses αHL pores (Staphylococcus aureus, UniProt P09616).
In a further data set the target is αHL (Staphylococcus aureus, UniProt P09616). It is filed as biochemical.

“Also recorded” adds a separate entry of the source.

Chain of αHL pores (P09616 27-319 limits assumed): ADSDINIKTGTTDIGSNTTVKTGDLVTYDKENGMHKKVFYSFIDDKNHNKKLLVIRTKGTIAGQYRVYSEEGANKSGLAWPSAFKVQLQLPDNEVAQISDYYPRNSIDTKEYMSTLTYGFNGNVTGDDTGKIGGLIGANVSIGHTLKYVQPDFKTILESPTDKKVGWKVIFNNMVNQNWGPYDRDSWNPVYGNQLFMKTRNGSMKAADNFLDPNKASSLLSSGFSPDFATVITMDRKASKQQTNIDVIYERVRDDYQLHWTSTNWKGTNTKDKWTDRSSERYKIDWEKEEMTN
Chain of αHL (P09616 27-319 limits assumed): as above

`O=S(=O)(O)c1cc(O)c2ccc3c(S(=O)(=O)O)cc(S(=O)(=O)O)c4ccc1c2c34` [pyranine, 8-hydroxypyrene-1,3,6-trisulfonic acid]: in data set [1] (current recordings, pyranine 10 mM), the “effect on bilayer stability” value is given as “did not compromise bilayer stability”. In data set [1] (one droplet with pyranine 10 mM, DPhPC 1 mg mL^-1, hexadecane/silicone oil AR20 1:1), the “time the bilayer was stable (capacitance monitoring)” value is recorded as “at least 90 min”. Also, at αHL pores, the “dye transfer through bilayers of the droplet network” value is “only through droplets containing αHL”, the “time of influx into droplet 4 (fastest influx)” value is reported as at most 13 h, the “time until colour change in all droplets of the second layer” value is reported as 4 days and the “time until αHL-containing droplets turned green” value is on record as around 70 h.

For xylene cyanol, at αHL pores, the “dye transfer through bilayers of the droplet network” value is listed as “did not show any transfer; also recorded: No transfer”.

As for γ-cyclodextrin [γCD], the “effect on ionic current / electrical signal through αHL pores” value at αHL was “intermittently interrupted; also recorded: interrupted by γCD blockades”.
